Results: ChEMBL document CHEMBL5291721, “A preclinical secondary pharmacology resource illuminates target-adverse drug reaction associations of marketed drugs” (Nat Commun, 2023)

Assays:
[1] = biological target: T1, Prostaglandin G/H synthase 1 (Rattus norvegicus, UniProt Q63921); assay type: functional
T1 sequence (Q63921 whole entry): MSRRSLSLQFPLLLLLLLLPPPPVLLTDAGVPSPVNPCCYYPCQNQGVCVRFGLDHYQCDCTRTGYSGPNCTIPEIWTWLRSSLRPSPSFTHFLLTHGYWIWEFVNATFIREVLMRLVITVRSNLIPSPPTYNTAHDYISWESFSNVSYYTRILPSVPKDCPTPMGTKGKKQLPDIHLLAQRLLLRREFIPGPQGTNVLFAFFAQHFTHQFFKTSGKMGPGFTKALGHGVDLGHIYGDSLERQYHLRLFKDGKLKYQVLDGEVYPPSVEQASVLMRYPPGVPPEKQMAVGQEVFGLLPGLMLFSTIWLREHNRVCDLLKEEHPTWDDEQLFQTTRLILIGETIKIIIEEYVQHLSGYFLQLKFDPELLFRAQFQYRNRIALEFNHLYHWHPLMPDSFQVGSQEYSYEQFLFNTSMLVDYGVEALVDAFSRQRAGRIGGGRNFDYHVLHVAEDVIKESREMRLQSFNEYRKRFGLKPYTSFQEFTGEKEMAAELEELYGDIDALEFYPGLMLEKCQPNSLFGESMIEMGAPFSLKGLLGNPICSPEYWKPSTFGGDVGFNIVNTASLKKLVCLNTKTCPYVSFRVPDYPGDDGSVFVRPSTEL

Histamine H3 receptor = Histamine H3 receptor (Homo sapiens, UniProt Q9Y5N1)
[2] = biological target: T2, Alpha-2A adrenergic receptor (Homo sapiens, UniProt P08913); assay type: functional, cell-based
T2 sequence (P08913 whole entry): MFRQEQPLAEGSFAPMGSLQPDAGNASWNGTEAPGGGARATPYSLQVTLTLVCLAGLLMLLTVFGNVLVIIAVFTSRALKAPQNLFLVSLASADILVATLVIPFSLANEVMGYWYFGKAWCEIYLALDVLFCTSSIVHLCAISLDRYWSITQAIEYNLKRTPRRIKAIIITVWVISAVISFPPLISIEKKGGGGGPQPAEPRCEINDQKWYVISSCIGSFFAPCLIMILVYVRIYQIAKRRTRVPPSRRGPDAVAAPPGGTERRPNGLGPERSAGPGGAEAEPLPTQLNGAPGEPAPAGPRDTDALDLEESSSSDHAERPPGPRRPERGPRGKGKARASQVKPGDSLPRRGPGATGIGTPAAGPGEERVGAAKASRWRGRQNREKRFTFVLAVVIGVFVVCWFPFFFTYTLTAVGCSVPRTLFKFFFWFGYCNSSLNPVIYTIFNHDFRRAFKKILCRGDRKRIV

[3] = biological target: Growth hormone secretagogue receptor type 1 (Homo sapiens, UniProt Q92847)
Histamine H1 receptor = Histamine H1 receptor (Homo sapiens, UniProt P35367)
[4] = biological target: T3, 5-hydroxytryptamine receptor 2C (Homo sapiens, UniProt P28335)
T3 sequence (P28335 whole entry): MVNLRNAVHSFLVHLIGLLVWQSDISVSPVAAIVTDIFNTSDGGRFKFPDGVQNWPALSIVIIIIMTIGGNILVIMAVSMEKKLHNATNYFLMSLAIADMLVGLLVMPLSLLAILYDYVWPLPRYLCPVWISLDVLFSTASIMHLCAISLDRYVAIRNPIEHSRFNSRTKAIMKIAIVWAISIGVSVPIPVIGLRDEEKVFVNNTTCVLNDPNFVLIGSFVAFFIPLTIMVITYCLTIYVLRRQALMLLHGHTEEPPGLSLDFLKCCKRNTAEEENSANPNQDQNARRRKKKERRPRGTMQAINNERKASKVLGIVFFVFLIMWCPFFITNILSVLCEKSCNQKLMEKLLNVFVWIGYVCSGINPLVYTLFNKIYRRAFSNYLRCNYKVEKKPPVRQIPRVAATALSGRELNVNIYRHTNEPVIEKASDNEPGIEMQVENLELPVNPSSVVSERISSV

[5] = biological target: T4, Gamma-aminobutyric acid receptor subunit alpha-1 (Rattus norvegicus, UniProt P62813); assay type: functional
Melanocortin receptor 3 = Melanocortin receptor 3 (Homo sapiens, UniProt P41968)
[6] = biological target: T4, Gamma-aminobutyric acid receptor subunit alpha-1
[7] = biological target: 5-hydroxytryptamine receptor 2A (Homo sapiens, UniProt P28223); assay type: functional, cell-based
Progesterone receptor = biological target: T5, Progesterone receptor (Homo sapiens, UniProt P06401); assay type: functional
T5 sequence (P06401 whole entry): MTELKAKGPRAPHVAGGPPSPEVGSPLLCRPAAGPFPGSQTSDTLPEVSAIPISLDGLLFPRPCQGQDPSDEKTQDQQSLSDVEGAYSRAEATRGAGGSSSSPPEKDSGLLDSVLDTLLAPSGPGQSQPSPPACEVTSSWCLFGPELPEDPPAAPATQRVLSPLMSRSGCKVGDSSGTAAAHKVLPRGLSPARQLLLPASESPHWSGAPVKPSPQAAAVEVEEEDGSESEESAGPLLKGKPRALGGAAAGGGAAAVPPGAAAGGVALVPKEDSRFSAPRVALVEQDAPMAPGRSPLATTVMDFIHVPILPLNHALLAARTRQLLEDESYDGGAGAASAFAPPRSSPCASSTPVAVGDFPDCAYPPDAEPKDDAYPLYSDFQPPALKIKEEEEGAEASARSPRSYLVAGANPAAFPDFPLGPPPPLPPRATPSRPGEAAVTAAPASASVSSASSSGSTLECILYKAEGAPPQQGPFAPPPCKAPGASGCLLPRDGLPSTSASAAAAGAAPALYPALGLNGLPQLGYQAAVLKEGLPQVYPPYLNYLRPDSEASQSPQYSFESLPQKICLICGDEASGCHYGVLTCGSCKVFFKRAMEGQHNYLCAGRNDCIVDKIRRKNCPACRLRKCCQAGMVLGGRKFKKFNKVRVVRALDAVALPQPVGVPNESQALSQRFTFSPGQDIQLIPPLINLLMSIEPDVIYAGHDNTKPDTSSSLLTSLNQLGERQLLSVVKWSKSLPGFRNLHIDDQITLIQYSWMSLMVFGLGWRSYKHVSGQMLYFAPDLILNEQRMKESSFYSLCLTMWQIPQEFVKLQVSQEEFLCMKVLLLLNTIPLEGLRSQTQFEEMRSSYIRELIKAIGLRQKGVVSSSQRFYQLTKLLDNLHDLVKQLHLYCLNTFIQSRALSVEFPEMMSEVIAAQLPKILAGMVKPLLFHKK
Also: assay procedure not described here.

T4 sequence (P62813 whole entry): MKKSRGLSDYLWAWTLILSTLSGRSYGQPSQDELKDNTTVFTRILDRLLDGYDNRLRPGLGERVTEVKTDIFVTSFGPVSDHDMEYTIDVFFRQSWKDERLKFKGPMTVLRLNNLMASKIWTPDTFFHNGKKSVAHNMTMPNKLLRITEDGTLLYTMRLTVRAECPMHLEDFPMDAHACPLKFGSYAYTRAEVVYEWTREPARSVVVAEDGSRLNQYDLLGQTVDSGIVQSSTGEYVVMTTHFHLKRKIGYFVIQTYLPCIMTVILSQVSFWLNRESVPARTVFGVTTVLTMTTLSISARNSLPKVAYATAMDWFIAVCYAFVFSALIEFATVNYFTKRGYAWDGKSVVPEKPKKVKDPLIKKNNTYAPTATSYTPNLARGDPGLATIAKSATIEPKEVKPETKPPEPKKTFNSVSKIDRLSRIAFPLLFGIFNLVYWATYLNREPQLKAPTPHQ
Chain of Growth hormone secretagogue receptor type 1 (Q92847 whole entry): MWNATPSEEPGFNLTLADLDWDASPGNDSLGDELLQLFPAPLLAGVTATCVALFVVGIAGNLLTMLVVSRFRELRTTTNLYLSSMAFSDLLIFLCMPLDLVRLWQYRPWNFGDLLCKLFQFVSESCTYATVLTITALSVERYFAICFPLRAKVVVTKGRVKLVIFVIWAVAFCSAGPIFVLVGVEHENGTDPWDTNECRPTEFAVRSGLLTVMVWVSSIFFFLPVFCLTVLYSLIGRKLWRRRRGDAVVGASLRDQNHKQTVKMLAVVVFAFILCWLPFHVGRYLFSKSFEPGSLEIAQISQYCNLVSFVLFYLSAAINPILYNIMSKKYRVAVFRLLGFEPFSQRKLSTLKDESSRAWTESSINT
Chain of Histamine H3 receptor (Q9Y5N1 whole entry): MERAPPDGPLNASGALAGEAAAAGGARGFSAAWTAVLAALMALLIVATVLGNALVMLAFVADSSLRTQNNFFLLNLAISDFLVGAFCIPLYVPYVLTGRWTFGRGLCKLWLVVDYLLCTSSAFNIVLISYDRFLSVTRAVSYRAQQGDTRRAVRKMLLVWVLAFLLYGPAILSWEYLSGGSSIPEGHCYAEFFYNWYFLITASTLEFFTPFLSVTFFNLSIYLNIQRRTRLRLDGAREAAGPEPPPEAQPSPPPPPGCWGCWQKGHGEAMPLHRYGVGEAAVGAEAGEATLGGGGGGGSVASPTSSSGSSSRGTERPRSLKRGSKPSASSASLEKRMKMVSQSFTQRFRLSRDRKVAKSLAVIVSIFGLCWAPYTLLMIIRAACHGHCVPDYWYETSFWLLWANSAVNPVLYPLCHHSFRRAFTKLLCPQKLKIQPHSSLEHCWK
Chain of Histamine H1 receptor (P35367 whole entry): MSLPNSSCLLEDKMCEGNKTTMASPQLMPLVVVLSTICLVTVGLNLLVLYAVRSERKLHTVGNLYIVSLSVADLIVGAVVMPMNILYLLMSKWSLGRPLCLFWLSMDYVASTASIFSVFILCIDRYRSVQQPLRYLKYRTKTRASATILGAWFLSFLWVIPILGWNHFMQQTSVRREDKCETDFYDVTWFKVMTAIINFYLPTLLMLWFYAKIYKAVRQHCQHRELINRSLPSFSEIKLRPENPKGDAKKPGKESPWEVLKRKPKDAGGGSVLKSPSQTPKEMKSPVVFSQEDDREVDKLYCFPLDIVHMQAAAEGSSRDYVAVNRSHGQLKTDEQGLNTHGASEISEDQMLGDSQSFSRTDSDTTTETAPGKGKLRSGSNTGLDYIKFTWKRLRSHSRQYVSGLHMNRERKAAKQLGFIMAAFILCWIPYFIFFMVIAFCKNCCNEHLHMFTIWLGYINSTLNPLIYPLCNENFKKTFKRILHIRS
Chain of Melanocortin receptor 3 (P41968 whole entry): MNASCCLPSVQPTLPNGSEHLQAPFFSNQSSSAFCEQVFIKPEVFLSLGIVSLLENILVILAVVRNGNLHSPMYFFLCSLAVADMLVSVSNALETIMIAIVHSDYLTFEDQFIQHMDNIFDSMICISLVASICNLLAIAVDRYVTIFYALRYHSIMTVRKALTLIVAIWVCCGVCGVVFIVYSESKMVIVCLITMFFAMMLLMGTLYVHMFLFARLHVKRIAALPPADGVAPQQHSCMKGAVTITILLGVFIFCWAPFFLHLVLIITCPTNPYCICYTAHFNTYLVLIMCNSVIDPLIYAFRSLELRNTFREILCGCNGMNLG
Chain of 5-hydroxytryptamine receptor 2A (P28223 whole entry): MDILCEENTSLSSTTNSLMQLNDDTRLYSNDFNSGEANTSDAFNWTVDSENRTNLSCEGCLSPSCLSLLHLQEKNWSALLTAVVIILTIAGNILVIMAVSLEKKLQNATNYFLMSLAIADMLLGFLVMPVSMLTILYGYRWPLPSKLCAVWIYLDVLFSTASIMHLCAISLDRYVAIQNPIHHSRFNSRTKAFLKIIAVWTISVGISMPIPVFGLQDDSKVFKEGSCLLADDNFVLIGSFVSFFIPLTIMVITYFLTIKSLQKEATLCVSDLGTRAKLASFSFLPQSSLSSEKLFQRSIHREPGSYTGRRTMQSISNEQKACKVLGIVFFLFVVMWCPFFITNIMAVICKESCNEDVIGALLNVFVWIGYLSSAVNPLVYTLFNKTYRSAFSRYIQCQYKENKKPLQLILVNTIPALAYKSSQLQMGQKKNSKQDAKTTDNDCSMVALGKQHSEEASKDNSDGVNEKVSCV

| SMILES | AC50 [1] [µM] | AC50 (Histamine H3 receptor) [µM] | AC50 [2] [µM] | AC50 [3] [µM] | AC50 (Histamine H1 receptor) [µM] | AC50 [4] [µM] | AC50 [5] [µM] | AC50 (Melanocortin receptor 3) [µM] | AC50 [6] [µM] | AC50 [7] [µM] | AC50 (Progesterone receptor) [µM] |
| --- | --- | --- | --- | --- | --- | --- | --- | --- | --- | --- | --- |
| CCC(=O)OCC(=O)[C@@]1(OC(=O)CC)[C@@H](C)C[C@H]2[C@@H]3CCC4=CC(=O)C=C[C@]4(C)[C@@]3(F)[C@@H](O)C[C@@]21C [BETAMETHASONE DIPROPIONATE] | > 10 | > 30 | > 30 | > 30 | > 30 | > 30 | > 30 | > 30 | > 30 | > 30 |  |
| CCCC(C)(COC(N)=O)COC(=O)NC(C)C (stereo not drawn) [CARISOPRODOL] | > 30 | > 10 | > 10 | > 30 | > 10 | > 30 | > 10 | > 30 | > 10 | > 30 |  |
| N[C@H](Cc1cc(I)c(Oc2cc(I)c(O)c(I)c2)c(I)c1)C(=O)O [DEXTROTHYROXINE] | > 30 | > 10 | > 10 | > 30 | > 10 | > 30 | > 10 | > 30 | > 10 |  |  |
| Clc1ccc2c(c1)C(c1ccccc1)=NCc1nncn1-2 [ESTAZOLAM] | > 30 | > 10 | > 10 | > 30 | > 10 | > 30 | 0.0336 | > 30 | > 10 |  |  |
| Clc1ccc(C(Cn2ccnc2)OCc2ccc(Sc3ccccc3)cc2)c(Cl)c1 (stereo not drawn) [FENTICONAZOLE] | 30 | > 30 | > 30 | > 30 | > 30 | > 30 | > 30 | 21 |  |  | 25 |
| O=C(O)c1ccccc1Nc1cccc(C(F)(F)F)c1 [FLUFENAMIC ACID] | 18.3 | > 10 | > 30 | > 30 | 0.082 | 4.6 | > 10 | > 30 | > 10 | > 30 |  |
| C#C[C@]1(O)CC[C@H]2[C@@H]3CCC4=CC(=O)CCC4=C3C=C[C@@]21CC [GESTRINONE] | > 30 | > 30 | > 30 | > 30 | > 30 | > 30 | 8.8 | > 30 | > 30 | > 30 |  |
| CC1(C)C(/C=C/C=C/C=C/C=C2\N(CCCCS(=O)(=O)O)c3ccc4ccccc4c3C2(C)C)=[N+](CCCCS(=O)(=O)[O-])c2ccc3ccccc3c21 [INDOCYANINE GREEN ACID FORM] | 21 |  | > 30 | 14 | 8.3 |  | 18 | > 30 |  |  | 3.4 |
| CC#CCn1c(N2CCC[C@@H](N)C2)nc2c1c(=O)n(Cc1nc(C)c3ccccc3n1)c(=O)n2C [LINAGLIPTIN] | > 30 | > 10 | > 10 | 5.2 | > 10 | > 30 | > 10 | > 30 | > 10 |  |  |
